Experiments:
[1] = test system: lambsquarters; assay: Test Example 5: herbicidal effect by foliage application, plastic box (Table 20, symbol O); format: in vivo, lambsquarters (Chenopodium album); settings: foliage application, 320 g/ha, three weeks after application
How it was run: (§1)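 Foliar spray test: emulsion formulation diluted in water to a set application rate, sprayed onto 14-day-old plants raised in diluvial soil at 25° C to 30° C under glass. Both herbicidal effect and crop effect rated visually three weeks later.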

[2] = test system: Japanese bulrush; assay: Test Example 2: herbicidal activity, application during weed generation under submerged conditions (Table 17, symbol B); format: in vivo, Japanese bulrush (Schoenoplectus juncoides); settings: AAH 320 g/ha; application during weed generation, submerged conditions
How it was run: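 Mixed weed seedlings in alluvial soil under a 4 cm water layer, greenhouse-grown at 25–30° C. Compound given as a diluted emulsion into the floodwater at the 1–2 leaf stage; response graded after three weeks.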

[3] = test system: southern crabgrass; assay: Test Example 4: herbicidal effect by soil treatment (Table 19, symbol F); format: in vivo, southern crabgrass (Digitaria ciliaris); settings: amount of applied herbicide 320 g/ha
How it was run: (§2)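 Step 1: sow seeds in sterilized diluvial soil, cover ~1.5 cm. Step 2: spray diluted emulsion onto soil surface at predetermined rate. Step 3: greenhouse, 25–30° C, three weeks. Step 4: grade effect on each plant by earlier criteria.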

[4] = test system: Japanese bulrush; assay: Test Example 1: herbicidal activity, application before weed generation under submerged conditions (Table 16, symbol B); format: in vivo, Japanese bulrush (Schoenoplectus juncoides); settings: 320 g/ha applied herbicide
How it was run: (§3)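 Submerged Wagner pots (alluvial soil, 4 cm water) sown with weed seeds and planted with 2.5-leaf rice seedlings; emulsifiable concentrate diluted in water applied to water surface on sowing day. Held in greenhouse at 25-30 °C; injury scored 0-5 by herbicidal rate after three weeks.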

[5] = test system: wild oat; assay: Test Example 5: herbicidal effect by foliage application, plastic box (Table 20, symbol I); format: in vivo, wild oat (Avena fatua); settings: foliage application, 320 g/ha, three weeks after application
How it was run: as §1

[6] = test system: Italian ryegrass; assay: Test Example 5: herbicidal effect by foliage application, plastic box (Table 20, symbol K); format: in vivo, Italian ryegrass (Lolium multiflorum); settings: foliage application, 320 g/ha, three weeks after application
How it was run: as §1

[7] = test system: windgrass; assay: Test Example 5: herbicidal effect by foliage application, plastic box (Table 20, symbol L); format: in vivo, windgrass (Apera spica-venti); settings: foliage application, 320 g/ha, three weeks after application
How it was run: as §1

[8] = test system: late watergrass; assay: Test Example 1: herbicidal activity, application before weed generation under submerged conditions (Table 16, symbol A); format: in vivo, late watergrass (Echinochloa oryzicola); settings: 320 g/ha applied herbicide
How it was run: as §3

[9] = test system: persian speedwell; assay: Test Example 5: herbicidal effect by foliage application, plastic box (Table 20, symbol R); format: in vivo, Persian speedwell (Veronica persica); settings: foliage application, 320 g/ha, three weeks after application
How it was run: as §1

[10] = test system: Chinese sprangletop; assay: Test Example 3: herbicidal effect by foliage application, Wagner pot (Table 18, symbol D); format: in vivo, chinese sprangletop (Leptochloa chinensis); settings: 320 g/ha
How it was run: (§4)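 Plants were sown in alluvial soil held under 0.1–0.5 cm standing water and grown 14 days in a greenhouse at 25–30 °C. An emulsifiable formulation, water-diluted to the set dose, was then sprayed onto the foliage, and effects were scored three weeks later using previously defined criteria.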

[11] = test system: barnyard grass; assay: Test Example 4: herbicidal effect by soil treatment (Table 19, symbol H); format: in vivo, barnyard grass (Echinochloa crus-galli); settings: amount of applied herbicide 320 g/ha
How it was run: as §2

[12] = test system: velvetleaf; assay: Test Example 5: herbicidal effect by foliage application, plastic box (Table 20, symbol M); format: in vivo, velvetleaf (Abutilon theophrasti); settings: foliage application, 320 g/ha, three weeks after application
How it was run: as §1

[13] = test system: southern crabgrass; assay: Test Example 5: herbicidal effect by foliage application, plastic box (Table 20, symbol F); format: in vivo, southern crabgrass (Digitaria ciliaris); settings: foliage application, 320 g/ha, three weeks after application
How it was run: as §1

[14] = test system: velvetleaf; assay: Test Example 4: herbicidal effect by soil treatment (Table 19, symbol M); format: in vivo, velvetleaf (Abutilon theophrasti); settings: amount of applied herbicide 320 g/ha
How it was run: as §2

[15] = test system: lambsquarters; assay: Test Example 4: herbicidal effect by soil treatment (Table 19, symbol O); format: in vivo, lambsquarters (Chenopodium album); settings: amount of applied herbicide 320 g/ha
How it was run: as §2

[16] = test system: barnyard grass; assay: Test Example 3: herbicidal effect by foliage application, Wagner pot (Table 18, symbol H); format: in vivo, barnyard grass (Echinochloa crus-galli); settings: 320 g/ha
How it was run: as §4

[17] = test system: windgrass; assay: Test Example 4: herbicidal effect by soil treatment (Table 19, symbol L); format: in vivo, windgrass (Apera spica-venti); settings: amount of applied herbicide 320 g/ha
How it was run: as §2

SMILES | herbicidal effect grade, O: lambsquarters [1] | herbicidal effect rating, B: Japanese bulrush [2] | herbicidal effect rating, F: southern crabgrass [3] | Herbicidal effect on B: Japanese bulrush (grade 0-5) [4] | herbicidal effect grade, I: wild oat [5] | herbicidal effect grade, K: Italian ryegrass [6] | herbicidal effect grade, L: windgrass [7] | Herbicidal effect on A: late watergrass (grade 0-5) [8] | herbicidal effect grade, R: persian speedwell [9] | herbicidal effect on D (Chinese sprangletop), rating 0-5 [10] | herbicidal effect rating, H: barnyard grass [11] | herbicidal effect grade, M: velvetleaf [12] | herbicidal effect grade, F: southern crabgrass [13] | herbicidal effect rating, M: velvetleaf [14] | herbicidal effect rating, O: lambsquarters [15] | herbicidal effect on H (barnyard grass), rating 0-5 [16] | herbicidal effect rating, L: windgrass [17]
CCCCOc1ccc(-c2sc3ccccc3c2-c2c(O)c(C)nn(C)c2=O)cc1 [1-024] | 5 (Herbicidal rate of 90% or more (almost completely withered)) | 4 (Herbicidal rate of 70% or more and less than 90%) | 0 (Herbicidal rate of 5% or less (almost no effect)) | 5 (Herbicidal rate of 90% or more (almost completely withered)) | 4 (Herbicidal rate of 70% or more and less than 90%) | 4 (Herbicidal rate of 70% or more and less than 90%) | 4 (Herbicidal rate of 70% or more and less than 90%) | 5 (Herbicidal rate of 90% or more (almost completely withered)) | 5 (Herbicidal rate of 90% or more (almost completely withered)) | 4 (Herbicidal rate of 70% or more and less than 90%) | 3 (Herbicidal rate of 40% or more and less than 70%) | 5 (Herbicidal rate of 90% or more (almost completely withered)) | 5 (Herbicidal rate of 90% or more (almost completely withered)) | 4 (Herbicidal rate of 70% or more and less than 90%) | 5 (Herbicidal rate of 90% or more (almost completely withered)) | 5 (Herbicidal rate of 90% or more (almost completely withered)) | 0 (Herbicidal rate of 5% or less (almost no effect))
CCCCOc1ccc(-c2sc3ccccc3c2-c2c(OC(=O)CCC)c(C)nn(C)c2=O)cc1 [1-025] | 4 (Herbicidal rate of 70% or more and less than 90%) | 3 (Herbicidal rate of 40% or more and less than 70%) | 0 (Herbicidal rate of 5% or less (almost no effect)) | 5 (Herbicidal rate of 90% or more (almost completely withered)) | 0 (Herbicidal rate of 5% or less (almost no effect)) | 1 (Herbicidal rate of 5% or more and less than 20%) | 0 (Herbicidal rate of 5% or less (almost no effect)) | 3 (Herbicidal rate of 40% or more and less than 70%) | 5 (Herbicidal rate of 90% or more (almost completely withered)) | 4 (Herbicidal rate of 70% or more and less than 90%) | 0 (Herbicidal rate of 5% or less (almost no effect)) | 5 (Herbicidal rate of 90% or more (almost completely withered)) | 3 (Herbicidal rate of 40% or more and less than 70%) | 0 (Herbicidal rate of 5% or less (almost no effect)) | 2 (Herbicidal rate of 20% or more and less than 40%) | 5 (Herbicidal rate of 90% or more (almost completely withered)) | 0 (Herbicidal rate of 5% or less (almost no effect))
CCCC(=O)Oc1c(C)nn(C)c(=O)c1-c1c(-c2ccc(SC)cc2)sc2ccccc12 [1-037] | 5 (Herbicidal rate of 90% or more (almost completely withered)) | 1 (Herbicidal rate of 5% or more and less than 20%) | 0 (Herbicidal rate of 5% or less (almost no effect)) | 4 (Herbicidal rate of 70% or more and less than 90%) | 1 (Herbicidal rate of 5% or more and less than 20%) | 4 (Herbicidal rate of 70% or more and less than 90%) | 0 (Herbicidal rate of 5% or less (almost no effect)) | 4 (Herbicidal rate of 70% or more and less than 90%) | 5 (Herbicidal rate of 90% or more (almost completely withered)) | 3 (Herbicidal rate of 40% or more and less than 70%) | 2 (Herbicidal rate of 20% or more and less than 40%) | 5 (Herbicidal rate of 90% or more (almost completely withered)) | 3 (Herbicidal rate of 40% or more and less than 70%) | 3 (Herbicidal rate of 40% or more and less than 70%) | 3 (Herbicidal rate of 40% or more and less than 70%) | 5 (Herbicidal rate of 90% or more (almost completely withered)) | 0 (Herbicidal rate of 5% or less (almost no effect))
COc1ccc(-c2sc3ccccc3c2-c2c(O)c(C)nn(C)c2=O)cc1OC [1-072] | 5 (Herbicidal rate of 90% or more (almost completely withered)) | 3 (Herbicidal rate of 40% or more and less than 70%) | 5 (Herbicidal rate of 90% or more (almost completely withered)) | 3 (Herbicidal rate of 40% or more and less than 70%) | 4 (Herbicidal rate of 70% or more and less than 90%) | 5 (Herbicidal rate of 90% or more (almost completely withered)) | 1 (Herbicidal rate of 5% or more and less than 20%) | 3 (Herbicidal rate of 40% or more and less than 70%) | 5 (Herbicidal rate of 90% or more (almost completely withered)) | 5 (Herbicidal rate of 90% or more (almost completely withered)) | 5 (Herbicidal rate of 90% or more (almost completely withered)) | 5 (Herbicidal rate of 90% or more (almost completely withered)) | 5 (Herbicidal rate of 90% or more (almost completely withered)) | 5 (Herbicidal rate of 90% or more (almost completely withered)) | 5 (Herbicidal rate of 90% or more (almost completely withered)) | 5 (Herbicidal rate of 90% or more (almost completely withered)) | 0 (Herbicidal rate of 5% or less (almost no effect))

— patent publication US20230085307A1, “PYRIDAZINONE COMPOUND AND HERBICIDE” (NISSAN CHEMICAL CORPORATION, priority 2019, published 2023)
